Experimental data as given in patent EP0097633B1, “Determination of the sensitivity of virus to antiviral agents” (Wahren, Britta, priority 1982, dated 1984).
Where two headings read alike, the source gives them in different places.

What was measured:
[1] = tested on: virus isolate from an eye IDU treated with without result; assay: VSA on a virus isolate from an eye treated with IDU without result (Example 3); assay type: cell-based
Procedure: (§1) Sterile plastic plates comprising 24 wells, each having a culture surface of 2.5 cm^2 and containing about 5 x 10^5 HL-cells/well were inoculated with 0.1 ml of virus dilutions as above. Such of the above virus dilutions only containing a small amount of virus are first cultured for 3 days in HL-cells, on which virus replicates, after which the virus isolate from one cell passage is taken out, is diluted 1:30 and 0.1 ml of the dilutions is added to the plates as indicated above. The cells are then incubated at a temperature of 32-37°C, with addition of different antiviral agents, and without any addition of antiviral agent to obtain reference values. Each antiviral agent is added in a dilution series comprising six different concentrations (Cl-C6), some of which correspond to desired serum concentrations for the treatment of patients. In table 1 is indicated the antiviral agents and concentrations thereof used.
(§2) The supernatant is sucked off and in order to achieve cell disrupture 800 µl of distilled water are added to the cells on the plates. The plates are frozen at -20°C and after some time sufficient for formation of ice crystals (about 15 min) the plates are thawed to room temperature for measurement of virus antigen. If desired, the plates can be preserved in a frozen state for a long time before they are thawed in order to carry out the measurement of virus antigen. When the plates have thawed 200 µl of NaCI of 4.5% are added to the cells in order to obtain an isotonic solution.
(§3) The amount of virus antigen formed is thereafter determined as follows. Guinea pig anti-HSV-serum is diluted in 0.1-M sodium carbonate buffer. 0.1 ml of the serum dilution is filled per well in microplates (M 29 AR, Dynatech, Zug, Switzerland) which have been washed three times with NaCI-solution of 0.9% containing 0.05% of Tween® 20, after which the plates are incubated for 16 hours at room temperature. The plates can be preserved sealed with their contents at +4°C up to 2-3 months.
(§4) 0.1 ml of the cell material obtained above or a known virus antigen is filled into plates treated with antibody and is incubated for 4 hours at +4°C. After washing with the washing solution indicated above 0.1 ml of rabbit anti-HSV is added and the plates are incubated for 2 hours at +37°C. The plates are washed and 0.1 ml of conjugate is added, after which they are incubated for 2 hours at +37°C. The conjugate consists of pig anti-rabbit IgG conjugated with alkaline phosphatase (Orion Diagnostica, Helsinki, Finland) in a dilution of 1:100. Non-bonded conjugate is washed off before 100 pl of the substrate p-nitrophenyl phosphate (1 mg/ml, Sigma, St Louis, MO, USA) are added. For dilution of the substrate 1 M diethanol buffer, pH 9.8 containing 0.5 x 10-^3 M MgC12 is used and for dilution of antisera and conjugate phosphate buffer (PBS), pH 7.3-7.4 with 0.5% of Tween® 20, 0.5% of BSA (bovine serum albumin) and 0.02% of NaN3 is used. The reaction is stopped after 20-60 min with 0.025 ml of 5 M NaOH. The absorbance (A) is thereafter read at 405 nm with Titertek Multiskan® (Flow Laboratories, Irvine, Scotland).

HSV = assay: Virus sensitivity assay (VSA): HSV patient material replicated in HL-cells with antiviral agent, cell disruption, virus antigen by ELISA sandwich technique (Example 1); assay type: cell-based, herpes simplex virus (HSV); settings: for absorbance (A) at 405 nm: disrupted cells, culture of 1 to 3 days; for sensitivity of the investigated HSV to the antiviral agent: read from Fig. 1
Procedure: A material from a patient containing living HSV is mixed with a small amount of Eagle's tissue culture medium containing 2% of calf serum, 100 IE penicillin/ml and 100 […] of streptomycin/ml, after which the virus mixture is diluted 1:30 in this medium.
as §1
As a background control of virus replication taking place and for a direct typing of virus 2 cell containing wells/plate are inoculated with a mixture of 0.1 ml virus dilution and 0.05 ml of Brij-58 of 1%.
After a culture of 1 to 3 days the effect of the antiviral agents is then evaluated by measurement with ELISA sandwich technique as described below. However, the cells are treated in the following way before this measurement.
as §2
as §3, with “months. The optimal antibody concentration has been determined by antibody titration with the respective antigen and control antigen.” for “months.”
as §4, with “Scotland). […]” for “Scotland).”

HSV-1 = assay: VSA on HL-cells infected with HSV-1, virus antigen measured in supernatant and in cells disrupted with distilled water (Example 2); assay type: cell-based; settings: for Absorbance values at 405 nm: 3 days
Procedure: as §1, §2
as §3, with “months. The optimal antibody concentration has been determined by antibody titration with the respective antigen and control antigen.” for “months.”
as §4, with “Scotland). Absorbance values then obtained at the concentrations C1―C6 of the antiviral agents from table 1 and at the concentration Co = O are indicated in the following table 2.” for “Scotland).”
HL-cells infected with HSV-1 were incubated in the same way as in example 1 in the presence of Ara-A and IDU in the concentrations indicated in table 1 for 3 days. Reference culture without addition of antiviral agent was also carried out. The virus antigen in the supernatant (---) and in cells disrupted with distilled water (-) was thereafter measured in the same way as in example 1, and the results are found in table 3 and Fig. 2.

[2] = cited from earlier work
[3] = C1: Ara-A 5, ACV 0.15, PFA 25, IDU 0.5 μM, C0 (no agent) 1.605
[4] = C2: Ara-A 10, ACV 0.31, PFA 50, IDU 1 μM, C0 1.605
[5] = C3: Ara-A 20, ACV 0.63, PFA 100, IDU 2 μM, C0 1.605
[6] = C4: Ara-A 40, ACV 1.25, PFA 200, IDU 4 μM, C0 1.605
[7] = C5: Ara-A 80, ACV 2.5, PFA 400, IDU 8 μM, C0 1.605
[8] = C6: Ara-A 160, ACV 5, PFA 800, IDU 16 μM, C0 1.605
[9] = C1: Ara-A 5, ACV 0.15, PFA 25, IDU 0.5 μM, C0 (no agent) 1.425
[10] = C2: Ara-A 10, ACV 0.31, PFA 50, IDU 1 μM, C0 1.425
[11] = C3: Ara-A 20, ACV 0.63, PFA 100, IDU 2 μM, C0 1.425
[12] = C4: Ara-A 40, ACV 1.25, PFA 200, IDU 4 μM, C0 1.425
[13] = C5: Ara-A 80, ACV 2.5, PFA 400, IDU 8 μM, C0 1.425
[14] = C6: Ara-A 160, ACV 5, PFA 800, IDU 16 μM, C0 1.425
[15] = cells disrupted with distilled water, C1: Ara-A 5, IDU 0.5 μM
[16] = cells disrupted with distilled water, C2: Ara-A 10, IDU 1 μM
[17] = cells disrupted with distilled water, C3: Ara-A 20, IDU 2 μM
[18] = cells disrupted with distilled water, C4: Ara-A 40, IDU 4 μM
[19] = cells disrupted with distilled water, C5: Ara-A 80, IDU 8 μM
[20] = cells disrupted with distilled water, C6: Ara-A 160, IDU 16 μM
[21] = supernatant, C1: Ara-A 5, IDU 0.5 μM
[22] = supernatant, C2: Ara-A 10, IDU 1 μM
[23] = supernatant, C3: Ara-A 20, IDU 2 μM
[24] = supernatant, C4: Ara-A 40, IDU 4 μM
[25] = supernatant, C5: Ara-A 80, IDU 8 μM
[26] = supernatant, C6: Ara-A 160, IDU 16 μM

SMILES	adsorbance values [1, 3]	adsorbance values [1, 4]	adsorbance values [1, 5]	adsorbance values [1, 6]	adsorbance values [1, 7]	adsorbance values [1, 8]	absorbance (A) at 405 nm (HSV; [9])	absorbance (A) at 405 nm (HSV; [10])	absorbance (A) at 405 nm (HSV; [11])	absorbance (A) at 405 nm (HSV; [12])	absorbance (A) at 405 nm (HSV; [13])	absorbance (A) at 405 nm (HSV; [14])	sensitivity of the investigated HSV to the antiviral agent (HSV)	Absorbance values at 405 nm (HSV-1; [15])	Absorbance values at 405 nm (HSV-1; [16])	Absorbance values at 405 nm (HSV-1; [17])	Absorbance values at 405 nm (HSV-1; [18])	Absorbance values at 405 nm (HSV-1; [19])	Absorbance values at 405 nm (HSV-1; [20])	Absorbance values at 405 nm (HSV-1; [21])	other results
Nc1nc2c(ncn2COCCO)c(=O)[nH]1 [ACV, acyclovir]	1.608	1.615	1.594	1.179	1.475	1.415	1.382	1.135	0.958	0.810	0.547	0.361	high sensitivity								
Nc1ncnc2c1ncn2C1OC(CO)C(O)C1O (centres unmarked) [Ara-A, adenosine-arabinoside]	1.572	1.482	0.750	0.155	0.071	0.039	1.505	1.132	1.017	0.892	0.520	0.473		1.130 ± 0.052	1.073 ± 0.054	0.863 ± 0.030	0.513 ± 0.025	0.142 ± 0.009	0.119	0.384 ± 0.025	50% of inhibition of antigen formation in the cells (HSV-1; read from Fig. 2, disrupted cells): in clinically relevant concentrations; Absorbance values at 405 nm (HSV-1; [22]): 0.323 ± 0.010; Absorbance values at 405 nm (HSV-1; [23]): 0.276 ± 0.006; Absorbance values at 405 nm (HSV-1; [24]): 0.184 ± 0.009; Absorbance values at 405 nm (HSV-1; [25]): 0.099 ± 0.006; Absorbance values at 405 nm (HSV-1; [26]): 0.099
O=c1[nH]c(=O)n([C@H]2C[C@H](O)[C@@H](CO)O2)cc1I [IDU, iododeoxyuridine]	1.207	1.165	0.951	0.739	0.706	0.502	1.011	0.847	0.671	0.536	0.344	0.298		1.130 ± 0.052	1.075 ± 0.054	0.863 ± 0.030	0.513 ± 0.025	0.142 ± 0.009	0.119	0.320 ± 0.037	Absorbance values at 405 nm (HSV-1; [22]): 0.259 ± 0.005; Absorbance values at 405 nm (HSV-1; [23]): 0.201 ± 0.025; Absorbance values at 405 nm (HSV-1; [24]): 0.142 ± 0.019; Absorbance values at 405 nm (HSV-1; [25]): 0.091 ± 0.017; Absorbance values at 405 nm (HSV-1; [26]): 0.143; Serum concentrations used clinically ([2]; concentrations are measured in lachrymal fluid): 4—400^1 μM or IU/ml
O=C(O)P(=O)(O)O [PFA, phosphonoformic acid]	1.487	1.502	0.656	0.216	0.092	0.083	1.437	1.391	1.346	1.321	0.893	0.310	a lower one								Serum concentrations used clinically ([2]; serum, desired concentrations for the treatment of patients): 100 μM or IU/ml
